SMILES strings stand for the structures. Square brackets hold non-standard residues; d marks the D form. Peptide text beside a SMILES is read from it. * marks the point of attachment. PhAc = O=C(Cc1ccccc1)*

This experiment concerns rabbit cardiac allograft coronary arteries. Kind of experiment: Rabbit cardiac allograft model. On Expression on Coronary Arteries: ICAM-1: key: -: negative; ±: minimal; +: little; ++: moderately abundant; +++: very abundant. On Expression on Coronary Arteries: Macrophages: key: -: negative; ±: minimal; +: little; ++: moderately abundant; +++: very abundant. On Expression on Coronary Arteries: T cells: key: -: negative; ±: minimal; +: little; ++: moderately abundant; +++: very abundant. On Expression on Coronary Arteries: Total Fibronectin: key: -: negative; ±: minimal; +: little; ++: moderately abundant; +++: very abundant. The format is in vivo. An excerpt:
New Zealand white rabbit SPF hearts were allografted into the necks of similar rabbits to assay a graft-vs-host immunorejection model and the affect of a contemplated compound on that immunoinflammatory response.
Experimental animal model New Zealand white female rabbits (Charles River Lab., Saint Laurent, Quebec), between 3.5 and 4 kg underwent heterotopic cardiac transplant following an experimental protocol previously described [Alonso et al., Am. J. Pathol., 87:415-442 (1977); Clausell et al., Circulation, 89:2768-2779 (1994)]. The animals were unselected to favor an HLA-mismatch, the host rabbits were Pasteurella-free and the donors, outbred animals. Both host and donor rabbits were fed Purina 5321-0.5 percent cholesterol diet (Research Diets Inc., New Brunswick, N.J.), a strategy that has proven useful in accelerating the process of allograft arteriopathy [Alonso et al., Am. J. Pathol., 87:415-442 (1977)]. The diet was commenced four days prior to the transplant and continued in the recipient of the transplant until the completion of the experimental period.
The technique of heterotopic cardiac transplantation has been previously described [Clausell et al., Circulation, 89:2768-2779 (1994)]. Briefly, a vertical incision was performed in the anterior aspect of the neck of the recipient rabbit and the left common carotid artery and the ipsilateral external jugular vein were isolated. The cardiac allograft was placed in the neck by anastomosing the aorta end-to-side to the recipient's carotid artery and the pulmonary end-to-side to the recipient's external jugular vein, following a total period of ischemia for the donor hearts of approximately 30 minutes. Postoperative care was in compliance with the Principles of Laboratory Animal Care formulated by the Canadian National Society for Medical Research.
Beginning the day of the transplant, the animals were randomized and treated with either scrambled compound (control group) at 1 mg/kg s.c. or the inhibitor compound at 1 mg/kg s.c. The doses of the compounds were empirically extrapolated to the in vivo model based on preliminary in vitro studies, of Table 1. No other immunosuppression therapy was administered. The grafts were monitored daily by palpation and maintained for 7 to 8 days, a previously described endpoint that was associated with myocardial rejection (impaired cardiac contractility) and development of the allograft arteriopathy in this model [Clausell et al., Circulation, 89:2768-2779 (1994)]. A total of fourteen animals were studied in the control (n=7) and treated (n=7) groups.
Preparation of the hearts The animals were sacrificed using a lethal dose of euthanol (480 mg i.v.) (MTC Pharmaceutical, Cambridge, Oreg.), host and donor hearts were removed, and the coronary arteries were perfused with saline through the aorta, followed by light fixation by perfusion with 2 percent paraformaldehyde (Sigma, St, Louis, Mo.). […] Different sections of the hearts were either saved in 10 percent formalin (BDH Inc., Toronto, ON) for light microscopy studies or immediately frozen in O.T.C. Compound Tissue Tek (Miles Inc., Elkart, In.) for specific immunohistochemistry studies.
Three different paraffin-embedded tissue sections from host and donor hearts from both control and treated rabbits were stained by the Movat pentachrome method for light microscopy. Morphometric analysis was performed using a Zeiss microscope attached to a computer-generated video analysis system (Perceptics Inc., NuVision software), as described in Clausell et al., Circulation, 89:2768-2779 (1994). The number of vessels with intimal lesions were counted in all three heart sections from each animal studied and are expressed as a percentage of the total vessel number.
In the host hearts, 999 vessels in the control group and 1054 vessels in the treated group were analyzed. In the donor hearts, 827 vessels in the control group and 617 vessels in the treated group were analyzed. […]

As to `CC(C)C[C@H](NC(=O)[C@H](CC(=O)O)NC(=O)Cc1ccccc1)C(=O)N[C@@H](Cc1ccccc1)C(=O)N1CCC[C@@H]1C(N)=O` [Compound ID No. 1066.02, N-phenylacetyl-Asp-Leu-Phe-D-Pro-NH2, reference compound] (PhAc-DLF[dP]-NH2), for the setting “1 mg/kg s.c., 7 to 8 days”, the “Expression on Coronary Arteries: ICAM-1” value was “+”, the “Expression on Coronary Arteries: Macrophages” value is reported as “+”, the “Expression on Coronary Arteries: T cells” value is “++” and the “Expression on Coronary Arteries: Total Fibronectin” value is “++”. The “Expression on Coronary Arteries: VCAM-1” value (1 mg/kg s.c., 7 to 8 days) is given as “+”. Besides, the “Expression on Coronary Arteries: MHC Class II” value (1 mg/kg s.c., 7 to 8 days, immunoperoxidase score) is given as “++”. For the same compound, under “donor hearts, 1 mg/kg s.c.”, the “Vessel Intimal Thickening: Percent of Vessels” value is reported as 88% and the “Vessel Intimal Thickening: Severity (Percent of Vessel area)” value is 36%. For the same compound, where the note is “host heart”, the “Baseline (rabbit own host heart) of incidence” value is 1% and the “Baseline (rabbit own host heart) of severity” value is listed as 12%.

Values taken from US5770573A, “CS-1 peptidomimetics, compositions and methods of using the same” (Cytel Corporation, priority 1995, dated 1998).
